Test results reported in US10308639B2, “Phosphatidylinositol 3-kinase inhibitors” (Gilead Sciences, Inc., priority 2014, dated 2019).
Read-outs that look alike come from different tables or passages of the source.

Key:
Type in all cases: biochemical
[1] = molecular target: T1, PI3Kβ (Homo sapiens, UniProt P42338); assay: TR-FRET enzymatic activity assay, PI3Kβ; details: Table 2; TR-FRET, 2x Km ATP, 30 minutes at 25° C.
T1 construct: made in house

[2] = molecular target: T2, PI3Kδ (Homo sapiens, UniProt O00329); assay: TR-FRET enzymatic activity assay, PI3Kδ; details: Table 2; TR-FRET, 2x Km ATP, 30 minutes at 25° C.
T2 construct: made in house

[3] = molecular target: T3, PI3Kγ (Homo sapiens, UniProt P48736); assay: TR-FRET enzymatic activity assay, PI3Kγ; details: read-out: PI3Kγ IC50
T3 construct: made in house
Method in brief: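 Compounds were profiled per isoform in a biochemical kinase reaction, with activity detected by time-resolved fluorescence resonance energy transfer.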

[4] = Table 2, TR-FRET, 2x Km ATP, 30 minutes at 25° C.

T1 sequence (P42338 whole entry): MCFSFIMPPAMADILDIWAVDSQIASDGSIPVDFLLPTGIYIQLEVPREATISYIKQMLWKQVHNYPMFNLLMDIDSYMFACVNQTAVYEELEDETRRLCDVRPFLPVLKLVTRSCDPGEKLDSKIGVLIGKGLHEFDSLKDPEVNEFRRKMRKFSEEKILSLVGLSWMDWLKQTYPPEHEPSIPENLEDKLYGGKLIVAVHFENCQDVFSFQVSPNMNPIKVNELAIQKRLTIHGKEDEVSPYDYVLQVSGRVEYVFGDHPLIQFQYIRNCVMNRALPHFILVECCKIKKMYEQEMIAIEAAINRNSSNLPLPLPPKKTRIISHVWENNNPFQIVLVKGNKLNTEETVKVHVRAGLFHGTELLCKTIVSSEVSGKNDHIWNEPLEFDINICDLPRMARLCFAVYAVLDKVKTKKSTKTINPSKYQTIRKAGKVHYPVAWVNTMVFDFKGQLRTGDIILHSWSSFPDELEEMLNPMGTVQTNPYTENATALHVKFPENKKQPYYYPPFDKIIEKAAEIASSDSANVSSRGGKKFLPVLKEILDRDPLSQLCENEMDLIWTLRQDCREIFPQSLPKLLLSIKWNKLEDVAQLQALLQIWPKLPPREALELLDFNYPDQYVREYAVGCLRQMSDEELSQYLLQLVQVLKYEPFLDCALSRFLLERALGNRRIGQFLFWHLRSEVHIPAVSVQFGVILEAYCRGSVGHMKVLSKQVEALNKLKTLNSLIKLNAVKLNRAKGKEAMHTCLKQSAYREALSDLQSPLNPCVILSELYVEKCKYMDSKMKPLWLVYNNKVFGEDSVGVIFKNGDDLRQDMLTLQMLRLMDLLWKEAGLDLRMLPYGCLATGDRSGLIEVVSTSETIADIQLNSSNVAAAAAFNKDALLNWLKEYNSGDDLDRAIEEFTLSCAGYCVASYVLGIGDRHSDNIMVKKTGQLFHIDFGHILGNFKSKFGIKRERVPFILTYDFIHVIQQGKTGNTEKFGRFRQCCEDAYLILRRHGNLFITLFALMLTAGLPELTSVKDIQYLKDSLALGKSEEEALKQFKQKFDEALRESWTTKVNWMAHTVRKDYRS
T1 sequence (P27986 whole entry partner): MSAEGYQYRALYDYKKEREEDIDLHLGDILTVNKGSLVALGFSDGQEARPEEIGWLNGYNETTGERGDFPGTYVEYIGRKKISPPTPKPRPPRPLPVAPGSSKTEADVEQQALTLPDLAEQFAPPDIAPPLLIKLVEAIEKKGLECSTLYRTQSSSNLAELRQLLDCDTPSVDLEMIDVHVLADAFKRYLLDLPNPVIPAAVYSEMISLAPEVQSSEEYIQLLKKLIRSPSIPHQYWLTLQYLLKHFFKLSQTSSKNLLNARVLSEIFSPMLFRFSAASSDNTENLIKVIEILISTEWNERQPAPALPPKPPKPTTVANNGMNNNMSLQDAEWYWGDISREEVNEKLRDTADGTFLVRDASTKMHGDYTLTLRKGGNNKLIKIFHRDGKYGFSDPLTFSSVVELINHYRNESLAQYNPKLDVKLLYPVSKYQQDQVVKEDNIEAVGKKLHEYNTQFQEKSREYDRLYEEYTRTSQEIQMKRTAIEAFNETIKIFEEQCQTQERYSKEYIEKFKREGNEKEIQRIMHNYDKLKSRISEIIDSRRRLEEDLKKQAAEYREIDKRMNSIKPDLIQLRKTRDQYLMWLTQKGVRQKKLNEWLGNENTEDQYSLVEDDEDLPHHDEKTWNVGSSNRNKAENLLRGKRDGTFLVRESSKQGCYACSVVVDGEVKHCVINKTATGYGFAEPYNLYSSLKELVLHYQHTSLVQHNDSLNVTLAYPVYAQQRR
T3 sequence (P48736 whole entry): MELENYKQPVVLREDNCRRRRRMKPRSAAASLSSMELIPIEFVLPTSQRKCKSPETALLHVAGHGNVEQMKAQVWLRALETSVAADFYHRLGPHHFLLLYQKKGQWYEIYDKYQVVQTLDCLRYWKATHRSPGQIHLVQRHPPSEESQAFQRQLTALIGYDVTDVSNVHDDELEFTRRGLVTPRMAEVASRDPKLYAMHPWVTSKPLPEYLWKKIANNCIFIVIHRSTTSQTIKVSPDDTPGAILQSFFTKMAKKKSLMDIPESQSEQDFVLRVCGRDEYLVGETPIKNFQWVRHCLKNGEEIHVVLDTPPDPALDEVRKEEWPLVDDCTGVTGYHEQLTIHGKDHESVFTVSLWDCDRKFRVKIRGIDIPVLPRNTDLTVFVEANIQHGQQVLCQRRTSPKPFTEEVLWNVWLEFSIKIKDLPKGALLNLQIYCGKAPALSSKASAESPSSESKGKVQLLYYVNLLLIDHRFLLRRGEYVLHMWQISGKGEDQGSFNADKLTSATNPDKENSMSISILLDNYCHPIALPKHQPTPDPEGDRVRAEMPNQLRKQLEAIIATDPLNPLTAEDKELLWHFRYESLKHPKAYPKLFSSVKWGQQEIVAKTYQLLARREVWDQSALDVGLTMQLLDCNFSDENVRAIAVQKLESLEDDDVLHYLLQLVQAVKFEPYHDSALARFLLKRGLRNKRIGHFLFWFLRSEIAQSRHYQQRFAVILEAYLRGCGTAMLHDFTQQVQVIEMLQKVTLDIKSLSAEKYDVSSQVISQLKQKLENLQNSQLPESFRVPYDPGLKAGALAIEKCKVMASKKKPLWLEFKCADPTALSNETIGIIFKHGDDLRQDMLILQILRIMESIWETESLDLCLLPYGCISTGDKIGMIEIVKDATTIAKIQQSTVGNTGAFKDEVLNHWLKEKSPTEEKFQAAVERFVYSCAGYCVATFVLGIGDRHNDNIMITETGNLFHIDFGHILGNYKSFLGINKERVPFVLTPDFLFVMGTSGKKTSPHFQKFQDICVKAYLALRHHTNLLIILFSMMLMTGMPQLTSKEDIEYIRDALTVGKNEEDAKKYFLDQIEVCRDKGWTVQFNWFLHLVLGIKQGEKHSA
T2 sequence (O00329 whole entry): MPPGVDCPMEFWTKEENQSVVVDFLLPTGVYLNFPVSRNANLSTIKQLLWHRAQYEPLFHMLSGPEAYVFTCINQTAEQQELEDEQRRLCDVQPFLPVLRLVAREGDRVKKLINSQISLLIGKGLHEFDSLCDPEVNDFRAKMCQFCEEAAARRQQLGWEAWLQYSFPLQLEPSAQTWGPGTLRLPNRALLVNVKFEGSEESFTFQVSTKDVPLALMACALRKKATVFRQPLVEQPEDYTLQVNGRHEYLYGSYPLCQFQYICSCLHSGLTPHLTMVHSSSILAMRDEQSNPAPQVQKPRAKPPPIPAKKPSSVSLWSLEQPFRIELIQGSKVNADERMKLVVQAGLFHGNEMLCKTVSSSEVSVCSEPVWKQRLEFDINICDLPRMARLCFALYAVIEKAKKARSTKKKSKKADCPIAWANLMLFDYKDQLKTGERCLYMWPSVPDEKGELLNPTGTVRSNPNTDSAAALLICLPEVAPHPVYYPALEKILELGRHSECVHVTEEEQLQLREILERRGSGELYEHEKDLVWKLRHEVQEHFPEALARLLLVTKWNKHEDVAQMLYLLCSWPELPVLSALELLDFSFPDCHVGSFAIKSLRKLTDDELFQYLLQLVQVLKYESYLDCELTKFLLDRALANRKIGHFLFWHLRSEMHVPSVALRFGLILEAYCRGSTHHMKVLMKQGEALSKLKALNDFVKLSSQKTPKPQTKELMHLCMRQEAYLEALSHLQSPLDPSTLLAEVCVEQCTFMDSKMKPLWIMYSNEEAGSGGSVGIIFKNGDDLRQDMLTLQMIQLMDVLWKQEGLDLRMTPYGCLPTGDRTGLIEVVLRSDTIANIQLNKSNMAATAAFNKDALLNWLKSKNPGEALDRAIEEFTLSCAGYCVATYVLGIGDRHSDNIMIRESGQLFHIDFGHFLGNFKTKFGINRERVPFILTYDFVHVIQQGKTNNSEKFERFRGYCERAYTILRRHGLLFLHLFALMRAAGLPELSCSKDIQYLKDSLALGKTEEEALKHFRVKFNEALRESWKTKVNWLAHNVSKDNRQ
T2 sequence (P27986 whole entry partner): as the sequence (P27986 whole entry partner) above

**Q.** How did the IC50 [1] turn out when `CC[C@H](Nc1ncnc2ccc(Cl)nc12)c1nc2c(C#N)cccc2c(=O)n1-c1cn[nH]c1` [Compound 94, (S)-2-(1-((6-chloropyrido[3,2-d]pyrimidin-4-yl)amino)propyl)-4-oxo-3-(1H-pyrazol-4-yl)-3,4-dihydroquinazoline-8-carbonitrile] was run?
**A.** 100 nM

**Q.** What about the IC50 [2] of the same compound?
**A.** 8 nM

**Q.** What about the IC50 [3, 4] of the same compound?
**A.** 1500 nM

**Q.** `CC[C@H](Nc1nc(N)nc(N)c1Cl)c1nc2c(C#N)cccc2c(=O)n1-c1cn[nH]c1` [Compound 95, (S)-2-(1-((2,6-diamino-5-chloropyrimidin-4-yl)amino)propyl)-4-oxo-3-(1H-pyrazol-4-yl)-3,4-dihydroquinazoline-8-carbonitrile] was tested. Which IC50 [1] did it give?
**A.** 1700 nM

**Q.** What about the IC50 [2] of the same compound?
**A.** 300 nM

**Q.** And the IC50 [3]?
**A.** > 10000 nM

**Q.** Which IC50 [1] does the source give for `CC[C@H](Nc1nc(N)nc(Cl)c1C#N)c1nc2c(C#N)cccc2c(=O)n1-c1cc[nH]n1` [Compound 96, (S)-2-(1-((2-amino-6-chloro-5-cyanopyrimidin-4-yl)amino)propyl)-4-oxo-3-(1H-pyrazol-3-yl)-3,4-dihydroquinazoline-8-carbonitrile] here?
**A.** 22 nM

**Q.** What about the IC50 [2] of the same compound?
**A.** 12 nM

**Q.** What about the IC50 [3] of the same compound?
**A.** > 10000 nM

**Q.** How did the IC50 [1] turn out when `CC[C@H](Nc1nc(N)nc(N)c1C#N)c1nc2cccc(C#N)c2c(=O)n1-c1cc[nH]n1` [Compound 97, (S)-2-(1-((2,6-diamino-5-cyanopyrimidin-4-yl)amino)propyl)-4-oxo-3-(1H-pyrazol-3-yl)-3,4-dihydroquinazoline-5-carbonitrile] was run?
**A.** 17 nM

**Q.** And the IC50 [2]?
**A.** 16 nM

**Q.** And the IC50 [3, 4]?
**A.** 3700 nM

**Q.** What does the source list for `CC[C@H](Nc1nc(N)nc(N)c1C#N)c1nc2cccc(Br)c2c(=O)n1-c1cc[nH]n1` [Compound 98, (S)-2,4-diamino-6-((1-(5-bromo-4-oxo-3-(1H-pyrazol-3-yl)-3,4-dihydroquinazolin-2-yl)propyl)amino)pyrimidine-5-carbonitrile]?
**A.** IC50 [1]: 0.3 nM; IC50 [2]: 0.6 nM; IC50 [3, 4]: 110 nM

**Q.** Which results are given for `CC[C@H](Nc1nc(N)nc(N)c1C#N)c1nc2cccc(Br)c2c(=O)n1-c1cn[nH]c1` [Compound 99, (S)-2,4-diamino-6-((1-(5-bromo-4-oxo-3-(1H-pyrazol-4-yl)-3,4-dihydroquinazolin-2-yl)propyl)amino)pyrimidine-5-carbonitrile]?
**A.** IC50 [1]: 0.8 nM; IC50 [2]: 1 nM; IC50 [3, 4]: 93 nM

**Q.** Which IC50 [1] does the source give for `CC[C@H](Nc1ncnc2scnc12)c1nc2cccc(Br)c2c(=O)n1-c1cn[nH]c1` [Compound 100, (S)-5-bromo-3-(1H-pyrazol-4-yl)-2-(1-(thiazolo[5,4-d]pyrimidin-7-ylamino)propyl)quinazolin-4(3H)-one] here?
**A.** 22 nM

**Q.** What about the IC50 [2] of the same compound?
**A.** 4 nM

**Q.** What about the IC50 [3, 4] of the same compound?
**A.** 280 nM

**Q.** Which results are given for `CC[C@H](Nc1ncnc2scnc12)c1nc2cccc(Br)c2c(=O)n1-c1cc[nH]n1` [Compound 101, (S)-5-bromo-3-(1H-pyrazol-3-yl)-2-(1-(thiazolo[5,4-d]pyrimidin-7-ylamino)propyl)quinazolin-4(3H)-one]?
**A.** IC50 [1]: 1 nM; IC50 [2]: 0.5 nM; IC50 [3, 4]: 960 nM

**Q.** What does the source list for `CC[C@H](Nc1nc(N)nc(N)c1C#N)c1nc2cccc(C#N)c2c(=O)n1-c1cn[nH]c1` [Compound 102, (S)-2-(1-((2,6-diamino-5-cyanopyrimidin-4-yl)amino)propyl)-4-oxo-3-(1H-pyrazol-4-yl)-3,4-dihydroquinazoline-5-carbonitrile]?
**A.** IC50 [1]: 82 nM; IC50 [2]: 29 nM; IC50 [3, 4]: 2500 nM

**Q.** What does the source list for `CC[C@H](Nc1ncnc2scnc12)c1nc2cccc(C#N)c2c(=O)n1-c1cn[nH]c1` [Compound 103, (S)-4-oxo-3-(1H-pyrazol-4-yl)-2-(1-(thiazolo[5,4-d]pyrimidin-7-ylamino)propyl)-3,4-dihydroquinazoline-5-carbonitrile]?
**A.** IC50 [1]: 620 nM; IC50 [2]: 100 nM; IC50 [3, 4]: 8700 nM

**Q.** With `C[C@H](Nc1ncnc2scnc12)c1nc2cccc(Cl)c2c(=O)n1-c1n[nH]cc1Br` [Compound 104, (S)-3-(4-bromo-1H-pyrazol-3-yl)-5-chloro-2-(1-(thiazolo[5,4-d]pyrimidin-7-ylamino)ethyl)quinazolin-4(3H)-one] as the compound, how does the IC50 [1] read?
**A.** 61 nM

**Q.** And the IC50 [2]?
**A.** 2 nM

**Q.** What about the IC50 [3, 4] of the same compound?
**A.** 500 nM

**Q.** What does the source list for `N#Cc1c(N)nc(N)nc1N[C@@H](c1ccccc1)c1nc2cccc(Cl)c2c(=O)n1-c1cc[nH]n1` [Compound 105, (S)-2,4-diamino-6-(((5-chloro-4-oxo-3-(1H-pyrazol-3-yl)-3,4-dihydroquinazolin-2-yl)(phenyl)methyl)amino)pyrimidine-5-carbonitrile]?
**A.** IC50 [1]: 5 nM; IC50 [2]: 3 nM; IC50 [3, 4]: 680 nM

**Q.** Which results are given for `N#Cc1c(N)nc(N)nc1N[C@@H](c1ccccc1)c1nc2cccc(Cl)c2c(=O)n1-c1cn[nH]c1` [Compound 106, (S)-2,4-diamino-6-(((5-chloro-4-oxo-3-(1H-pyrazol-4-yl)-3,4-dihydroquinazolin-2-yl)(phenyl)methyl)amino)pyrimidine-5-carbonitrile]?
**A.** IC50 [1]: 4 nM; IC50 [2]: 2 nM; IC50 [3, 4]: 210 nM

**Q.** Which IC50 [1] does the source give for `Nc1nc(N)c(Cl)c(N[C@@H](c2ccccc2)c2nc3cccc(Cl)c3c(=O)n2-c2cn[nH]c2)n1` [Compound 107, (S)-5-chloro-2-(((2,6-diamino-5-chloropyrimidin-4-yl)amino)(phenyl)methyl)-3-(1H-pyrazol-4-yl)quinazolin-4(3h)-one] here?
**A.** 49 nM

**Q.** And the IC50 [2]?
**A.** 11 nM

**Q.** And the IC50 [3, 4]?
**A.** 2400 nM

**Q.** `Cc1nc(N)nc(N[C@@H](c2ccccc2)c2nc3cccc(Cl)c3c(=O)n2-c2cn[nH]c2)c1C#N` [Compound 108, (S)-2-amino-4-(((5-chloro-4-oxo-3-(1H-pyrazol-4-yl)-3,4-dihydroquinazolin-2-yl)(phenyl)methyl)amino)-6-methylpyrimidine-5-carbonitrile] was tested. Which IC50 [1] did it give?
**A.** 5 nM

**Q.** What about the IC50 [2] of the same compound?
**A.** 1 nM

**Q.** What about the IC50 [3, 4] of the same compound?
**A.** 150 nM

**Q.** With `Nc1nc(N)c(Cl)c(N[C@@H](c2ccccc2)c2nc3cccc(Cl)c3c(=O)n2-c2cc[nH]n2)n1` [Compound 109, (S)-5-chloro-2-(((2,6-diamino-5-chloropyrimidin-4-yl)amino)(phenyl)methyl)-3-(1H-pyrazol-3-yl)quinazolin-4(3h)-one] as the compound, how does the IC50 [1] read?
**A.** 25 nM

**Q.** What about the IC50 [2] of the same compound?
**A.** 9 nM

**Q.** What about the IC50 [3, 4] of the same compound?
**A.** 4900 nM

**Q.** Which IC50 [1] does the source give for `Cc1nc(N)nc(N[C@@H](c2ccccc2)c2nc3cccc(Cl)c3c(=O)n2-c2cc[nH]n2)c1C#N` [Compound 110, (S)-2-amino-4-(((5-chloro-4-oxo-3-(1H-pyrazol-3-yl)-3,4-dihydroquinazolin-2-yl)(phenyl)methyl)amino)-6-methylpyrimidine-5-carbonitrile] here?
**A.** 4 nM

**Q.** What about the IC50 [2] of the same compound?
**A.** 1 nM

**Q.** What about the IC50 [3, 4] of the same compound?
**A.** 410 nM

**Q.** Which IC50 [1] does the source give for `CC[C@H](Nc1nc(N)nc(N)c1C#N)c1nc2ccc(F)cc2c(=O)n1-c1cc[nH]n1` [Compound 112, (S)-2,4-diamino-6-((1-(6-fluoro-4-oxo-3-(1H-pyrazol-3-yl)-3,4-dihydroquinazolin-2-yl)propyl)amino)pyrimidine-5-carbonitrile] here?
**A.** 17 nM

**Q.** And the IC50 [2]?
**A.** 4 nM

**Q.** And the IC50 [3, 4]?
**A.** 2200 nM

**Q.** For `N#Cc1c(N)nc(N)nc1N[C@H](c1nc2ccc(F)cc2c(=O)n1-c1cc[nH]n1)C1CC1` [Compound 113, (S)-2,4-diamino-6-((cyclopropyl(6-fluoro-4-oxo-3-(1H-pyrazol-3-yl)-3,4-dihydroquinazolin-2-yl)methyl)amino)pyrimidine-5-carbonitrile], which IC50 [1] is on record?
**A.** 2 nM

**Q.** And the IC50 [2]?
**A.** 1 nM

**Q.** What about the IC50 [3, 4] of the same compound?
**A.** 980 nM

**Q.** How did the IC50 [1] turn out when `Nc1nc(N)c(Cl)c(N[C@H](c2nc3ccc(F)cc3c(=O)n2-c2cc[nH]n2)C2CC2)n1` [Compound 114, (S)-2-(cyclopropyl((2,6-diamino-5-chloropyrimidin-4-yl)amino)methyl)-6-fluoro-3-(1H-pyrazol-3-yl)quinazolin-4(3h)-one] was run?
**A.** 110 nM

**Q.** What about the IC50 [2] of the same compound?
**A.** 23 nM

**Q.** What about the IC50 [3] of the same compound?
**A.** > 10000 nM

**Q.** `C[C@H](Nc1nc(N)nc(N)c1C#N)c1nc2ccc(F)cc2c(=O)n1-c1cc[nH]n1` [Compound 115, (S)-2,4-diamino-6-((1-(6-fluoro-4-oxo-3-(1H-pyrazol-3-yl)-3,4-dihydroquinazolin-2-yl)ethyl)amino)pyrimidine-5-carbonitrile] was tested. Which IC50 [1] did it give?
**A.** 2 nM

**Q.** And the IC50 [2]?
**A.** 1 nM

**Q.** What about the IC50 [3, 4] of the same compound?
**A.** 560 nM

**Q.** For `CC[C@H](Nc1nc(N)nc(N)c1Cl)c1nc2ccc(F)cc2c(=O)n1-c1cc[nH]n1` [Compound 116, (S)-2-(1-((2,6-diamino-5-chloropyrimidin-4-yl)amino)propyl)-6-fluoro-3-(1H-pyrazol-3-yl)quinazolin-4(3h)-one], which IC50 [1] is on record?
**A.** 210 nM

**Q.** What about the IC50 [2] of the same compound?
**A.** 44 nM

**Q.** What about the IC50 [3] of the same compound?
**A.** > 10000 nM

**Q.** Which results are given for `C[C@H](NC(=O)c1c(N)nn2cccnc12)c1nc2cccc(Cl)c2c(=O)n1-c1cc[nH]n1` [Compound 117, (S)-2-amino-N-(1-(5-chloro-4-oxo-3-(1H-pyrazol-3-yl)-3,4-dihydroquinazolin-2-yl)ethyl)pyrazolo[1,5-a]pyrimidine-3-carboxamide]?
**A.** IC50 [1]: 37 nM; IC50 [2]: 110 nM; IC50 [3, 4]: 160 nM

**Q.** Which results are given for `CC[C@H](NC(=O)c1nccnc1N)c1nc2c(Cl)ccc(Cl)c2c(=O)n1-c1cc[nH]n1` [Compound 118, (S)-3-amino-N-(1-(5,8-dichloro-4-oxo-3-(1H-pyrazol-3-yl)-3,4-dihydroquinazolin-2-yl)propyl)pyrazine-2-carboxamide]?
**A.** IC50 [1]: 510 nM; IC50 [2]: 260 nM; IC50 [3]: > 10000 nM

**Q.** `CC[C@H](NC(=O)c1cnn2cccnc12)c1nc2c(Cl)ccc(Cl)c2c(=O)n1-c1cn[nH]c1` [Compound 119, (S)—N-(1-(5,8-dichloro-4-oxo-3-(1H-pyrazol-4-yl)-3,4-dihydroquinazolin-2-yl)propyl)pyrazolo[1,5-a]pyrimidine-3-carboxamide] was tested. Which IC50 [1] did it give?
**A.** 360 nM

**Q.** What about the IC50 [2] of the same compound?
**A.** 170 nM

**Q.** What about the IC50 [3, 4] of the same compound?
**A.** 7200 nM

**Q.** How did the IC50 [1] turn out when `CC[C@H](NC(=O)c1cnn2cccnc12)c1nc2c(Cl)ccc(Cl)c2c(=O)n1-c1cc[nH]n1` [Compound 120, (S)—N-(1-(5,8-dichloro-4-oxo-3-(1H-pyrazol-3-yl)-3,4-dihydroquinazolin-2-yl)propyl)pyrazolo[1,5-a]pyrimidine-3-carboxamide] was run?
**A.** 530 nM

**Q.** What about the IC50 [2] of the same compound?
**A.** 720 nM

**Q.** What about the IC50 [3] of the same compound?
**A.** > 10000 nM
